The subject of the assay is GSCs. The assay is described as follows: GSC growth (several lines, stated for GSCs in general). It counts as cell-based, human. The following applies: 0.5, 1, 2, 4, 8 μM. Here is the method:
GSCs were derived from newly diagnosed grade IV GBM patients. GSCs and NSCs were maintained in spheres in DMEM-F12 medium supplemented with 2 mM L-glutamine, 27.4 mM HEPES, B27, 20 ng ml^−1 EGF, 20 ng ml^−1 FGF and 5 μg ml^−1 heparin as described (Cui, Q., et al., supra). Established GBM cells were maintained in DMEM medium supplemented with 2 mM L-glutamine and 10% FBS. All cultures were mycoplasma-free as confirmed using MycoAlert PLUS Mycoplasma Detection Kit (Lonza). GSCs or NSCs were treated with PUS7 inhibitors at indicated concentration for 72 h. GSCs were treated with IFNα at indicated doses for 6 days.
GSC growth, sphere formation and limiting dilution assays were performed as described 9 Cui, Q., et al., supra). For growth, GSCs were seeded at 5×10^4 cells per well in 24-well plates and cultured for 7 days. Cell growth was monitored by cell counting using a hemocytometer. For sphere formation, GSCs were seeded at 1 cell per well in 96-well plates or 100 cells per well in 48-well plates and cultured for 2 weeks. Spheres were counted under microscope. For limiting dilution assay, GSCs were seeded into 96-well plates at 1, 5, 10, 20, 50 and 100 cells per well. The number of sphere-forming wells was recorded in two weeks. The limiting dilution analysis was performed using the extreme limiting dilution analysis software at http://bioinf.wehi.edu.au/software/elda.

Regarding `NC(=O)c1[nH]nc([C@@H]2O[C@H](CO)[C@@H](O)[C@H]2O)c1O` [pyrazofurin], under “FIG. 17B”, the “dose effect on the growth of PBT003 and PBT707 GSCs (significance)” value is “p<0.0001 for 0.5, 1, 2, 4, and 8 μM conditions”. The “dose effect on the growth of PBT0030, NSC005, and NSC010 (significance)” value (FIG. 17C) is “p<0.0001 for 0.5, 1, 2, 4, and 8 μM conditions for PBT030 only”.

These data come from patent publication US20240343734A1, “NOVEL SMALL MOLECULE INHIBITORS OF PUS7 AND USES THEREOF” (City of Hope, priority 2021, published 2024).
